Here are results for 53 compounds from EP1724268A1, “COMPOUND HAVING TGF-BETA INHIBITORY ACTIVITY AND PHARMACEUTICAL COMPOSITION CONTAINING SAME” (KIRIN BEER KABUSHIKI KAISHA, priority 2004, dated 2005).

This test has as its system TGFβ signal. Briefly: TGFβ signal inhibitory activity, (SBE)4-Luc reporter in A549 cells (Test Examples 1A and 1B). It is filed as cell-based, human. The note with it: Homo sapiens, A549, compounds of Reference Examples (Test Example 1B), read-out: TGFβ inhibition rate, %. A digest of the protocol: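 Compounds at 3 µM and 10 µM (some 1 µM) were added with 2 ng/ml TGFβ-1 to A549 cells stably expressing an SBE-driven luciferase, then cultured 4 hr. Chemiluminescent luciferase signal gave % inhibition versus TGFβ-alone and no-TGFβ controls.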

Usually inhibition stands for the share of the control response that was lost under treatment. For the compound `COc1cc2nccc(Oc3ccc(C)nc3/C=C/c3ccccc3)c2cc1OC` [r216], the inhibition at 3 µM worked out at 22% and the inhibition at 10 µM was determined as 73%. In the case of `COc1cc2nccc(Oc3ccc(C)nc3C(O)c3ccccc3)c2cc1OC` (centres unmarked) [r217], the inhibition at 3 µM was found to be 91% and the inhibition at 10 µM worked out at 100%. Consider `COc1cc2nccc(Oc3ccc(C)nc3C(OC(C)=O)c3ccccc3)c2cc1OC` (centres unmarked) [r218], for which the inhibition at 3 µM came out at 21% and the inhibition at 10 µM worked out at 56%. As for `COc1cc2nccc(Oc3ccc(C)nc3C(=O)c3cccc(C)n3)c2cc1OC` [r221], the inhibition at 3 µM was 71% and the inhibition at 10 µM stood at 98%. On the same counts, the results for `COc1cc2nccc(Oc3cc(Cl)cnc3OC3CCCC3)c2cc1OC` [r222] are 44% and 100%. The corresponding values for `COc1cc2nccc(Oc3ccc(C)nc3-c3ccsc3)c2cc1OC` [r255] are 93% and 100%.

With `COc1cc2nccc(Oc3ccc(C)nc3-c3cc(C)no3)c2cc1OC` [r258], the inhibition at 3 µM amounted to 99% and the inhibition at 10 µM was 100%. On to `COc1cc2nccc(Oc3ccc(C)nc3-c3nccs3)c2cc1OC` [r259], for which, for the setting “1 µM”, the inhibition at 1 µM was determined as 100%. Regarding `COc1cc2nccc(Oc3ccc(C)nc3-c3ccccn3)c2cc1OC` [r261], the inhibition at 3 µM was found to be 100% and the inhibition at 10 µM came out at 100%. With `COc1cc2nccc(Oc3ccc(SC)nc3-c3cccnc3)c2cc1OC` [r267], the inhibition at 3 µM is 34% and the inhibition at 10 µM worked out at 83%. `COc1cc2nccc(Oc3cc(C)c(C)nc3-c3ccccc3)c2cc1OC` [r268]: the inhibition at 3 µM stood at 100% and the inhibition at 10 µM stood at 100%. As for `COc1cc2nccc(Oc3cc(C)c(C)nc3-c3ncccn3)c2cc1OC` [r274], the inhibition at 3 µM was found to be 97%. `COc1cc2nccc(Oc3cnc4ccccc4c3)c2cc1OC` [r275]: the inhibition at 3 µM came out at 45% and the inhibition at 10 µM is 90%. On to `COc1cc2nccc(Oc3cc4ccccc4nc3C)c2cc1OC` [r276], for which the inhibition at 3 µM stood at 89% and the inhibition at 10 µM was 100%. With `COc1cc2nccc(Oc3cc4ccccc4nc3C(=O)c3ccccc3)c2cc1OC` [r279], the inhibition at 3 µM turned out to be 98% and the inhibition at 10 µM turned out to be 100%. The corresponding values for `COc1cc2nccc(Oc3cc4ccccc4nc3OC3CCCC3)c2cc1OC` [r280] are 45% and 88%. On the same counts, the results for `COc1cc2nccc(Oc3cc4ccccc4nc3I)c2cc1OC` [r282] are 96% and 100%.

Turning to `COc1cc2nccc(Oc3cc4ccccc4nc3-c3ccc(F)cc3)c2cc1OC` [r285], the inhibition at 3 µM came out at 65% and the inhibition at 10 µM was 100%.

Turning to `COc1cc2nccc(Oc3cc4ccccc4nc3-c3ccc(F)cc3F)c2cc1OC` [r286], the inhibition at 3 µM is 93% and the inhibition at 10 µM was 100%. Regarding `COc1cc2nccc(Oc3cc4ccccc4nc3-c3ccccn3)c2cc1OC` [r287], the inhibition at 3 µM amounted to 100% and the inhibition at 10 µM was 100%.

As to `COc1cc2nccc(Oc3cc4ccccc4nc3-c3ccncc3)c2cc1OC` [r289], the inhibition at 3 µM amounted to 80% and the inhibition at 10 µM is 99%. For the compound `COc1cc2nccc(Oc3cc4ccccc4nc3-c3cc(C)c(Cl)s3)c2cc1OC` [r290], the inhibition at 3 µM came out at 18% and the inhibition at 10 µM worked out at 57%. On to `COc1cc2nccc(Oc3c(C)nc4ccccc4c3Br)c2cc1OC` [r291], for which the inhibition at 3 µM worked out at 14% and the inhibition at 10 µM worked out at 78%. On the same counts, the results for `COc1cc2nccc(Oc3cc4cc(F)ccc4nc3-c3ccccc3)c2cc1OC` [r292] are 86% and 100%.

`COc1cc2nccc(Oc3ccc4[nH]ccc4c3)c2cc1OC` [r293]: the inhibition at 3 µM is 65% and the inhibition at 10 µM is 95%. On the same counts, the results for `COc1cc2nccc(Oc3ccc4ncsc4c3I)c2cc1OC` [r294] are 53% and 77%. On the same counts, the results for `COc1cc2nccc(Oc3cc4cccnc4cc3C)c2cc1OC` [r296] are 86% and 100%.

`COc1cc2nccc(Oc3ccc4ncccc4c3Cl)c2cc1OC` [r298]: the inhibition at 3 µM turned out to be 30% and the inhibition at 10 µM came out at 75%. With `COc1cc2nccc(Oc3c(C)cc4ncccc4c3Cl)c2cc1OC` [r302], the inhibition at 3 µM is 30% and the inhibition at 10 µM was 90%. On the same counts, the results for `COc1cc2nccc(Oc3cc4ccncc4cc3-c3cccnc3)c2cc1OC` [r304] are 26% and 64%. For `COc1cc2nccc(Oc3ccc4oc(=O)cc(C)c4c3)c2cc1OC` [r306], the inhibition at 3 µM was 20% and the inhibition at 10 µM amounted to 53%. Take `COc1cc2nccc(Oc3cc4cnccc4nc3C)c2cc1OC` [r311]: the inhibition at 3 µM was 53% and the inhibition at 10 µM worked out at 90%.

On to `COc1ccc(Oc2ccnc3cc(O)c(OC)cc23)c(C(C)=O)c1` [r312], for which the inhibition at 3 µM was 50% and the inhibition at 10 µM was determined as 76%. For the compound `COc1cc2c(Oc3cc4cnccc4nc3C)ccnc2cc1OCC(CO)CO` [r409], the inhibition at 3 µM was 41% and the inhibition at 10 µM was determined as 88%. With `COc1cc2c(Oc3cc4ccccc4nc3C)ccnc2cc1-c1ccncc1` [r414], the inhibition at 3 µM came out at 82% and the inhibition at 10 µM is 100%. Turning to `COc1cc2nccc(Oc3cc4ccccc4nc3C)c2cc1OCC(O)CO` (centres unmarked) [r417], the inhibition at 3 µM was 98% and the inhibition at 10 µM was 100%. The corresponding values for `COc1cc2nccc(Nc3cnc4ccccc4c3)c2cc1OC` [r418] are 46% and 73%.

Take `COc1cc2nccc(Sc3ccc4ccccc4n3)c2cc1OC` [r420]: the inhibition at 3 µM was 2% and the inhibition at 10 µM is 62%.

`COc1cc2nccc(Oc3cc4cccnc4nc3-c3ccccn3)c2cc1OC` [r421]: the inhibition at 3 µM worked out at 94% and the inhibition at 10 µM is 100%. On the same counts, the results for `CCc1nc2ccncc2cc1Oc1ccnc2cc(OC)c(OC)cc12` [r424] are 28% and 79%. As to `COc1cc2nccc(Oc3cc4ccccc4cc3O)c2cc1OC` [r425], the inhibition at 3 µM is 72% and the inhibition at 10 µM amounted to 100%. As to `COc1cc2nccc(Oc3cc4cccnc4nc3C(C)(C)C)c2cc1OC` [r426], the inhibition at 3 µM was 100%.

`COc1cc2nccc(Oc3cc4cccnc4nc3-c3ccc(C)cc3)c2cc1OC` [r428]: the inhibition at 3 µM is 67%. Consider `COc1cc2nccc(Oc3cc(C)c(C)nc3-c3ncccc3C)c2cc1OC` [r429], for which the inhibition at 3 µM came to 52% and the inhibition at 10 µM is 94%.

In the case of `Cc1ccc(-c2nc(C)c(C)cc2Oc2ccnc3cc(C(F)(F)F)ccc23)nc1` [r433], the inhibition at 3 µM is 91% and the inhibition at 10 µM was 100%. For `COc1cc2nccc(Oc3ccc(C)nc3-c3cn[nH]c3)c2cc1OC` [r434], the inhibition at 3 µM is 100% and the inhibition at 10 µM was found to be 100%.

Turning to `COc1cc2nccc(Oc3cc(C)c(C)nc3-c3cnccc3C)c2cc1OC` [r435], the inhibition at 3 µM came out at 29% and the inhibition at 10 µM came to 79%. On the same counts, the results for `COc1cc2ncnc(Oc3cc4cccnc4nc3-c3ccccc3)c2cc1OC` [r436] are 99% and 100%. Consider `COc1cc2ncnc(Oc3cc(C)c(C)nc3-c3ccc(C)cn3)c2cc1OC` [r437], for which the inhibition at 3 µM came out at 95% and the inhibition at 10 µM was found to be 100%.

With `COc1cc2nccc(Oc3ccc(C)nc3-c3cnn(C)c3)c2cc1OC` [r438], the inhibition at 3 µM amounted to 99% and the inhibition at 10 µM worked out at 100%.

In the case of `COc1cc2nccc(Oc3cc4ccccc4nc3CCC(C)C)c2cc1OC` [r439], the inhibition at 3 µM is 43% and the inhibition at 10 µM was 95%. On the same counts, the results for `COc1cc2c(Oc3cc4cccnc4nc3C)ccnc2cc1OCCN1CCCCC1` [r440] are 100% and 100%. Consider `COc1cc2c(Oc3cc(C)c(C)nc3-c3ccc(C)cn3)ccnc2cc1OCCNCCO` [r469], for which the inhibition at 3 µM turned out to be 100%.
